Results from US12502393B2, “Dual mode of action soluble guanylate cyclase activators and phosphodiesterase inhibitors and uses thereof” (TOPADUR PHARMA AG, priority 2018, dated 2025).
pIC50: −log10 of the molar value. Like-named read-outs stand apart in the source and are kept apart here.

Experiments:
[1] = biological target: T1, recombinant human (rh) PDE5A (Homo sapiens, UniProt O76074); assay: Phosphodiesterase-5 activity assay (radiometric SPA); format: biochemical; conditions: rhPDE5A1, 0.5 μM cGMP, 20 min at 37° C.
T1 construct: GST; purchased SIGMA E9034

[2] = Human plasma protein binding; format: in vitro ADME; conditions: for fraction unbound: human
Description: An aliquot of 200 μL of human plasma containing test compound was spiked into donor well (red chamber) of the insert. 350 μL of PBS was spiked into receiver well (white chamber) of the insert.
The samples were matrix equilibrated with opposite matrix (25 μL of plasma/buffer sample was matched with 25 μL of blank buffer/plasma). Matrix matched samples were precipitated with 200 μL of acetonitrile containing internal standard. Samples were vortexed at 1000 rpm for 5 min and centrifuged at 4000 rpm for 10 min. Supernatant was separated, diluted 2 fold with water and analysed in LC-MS/MS. (Table 2).

[3] = read-out: % Unbound in human plasma
[4] = read-out: % Bound in human plasma (converted)

Molecule | pIC50 [1] | other results
4-ethoxy-3-(5-methyl-4-oxo-7-propyl-3,4-dihydroimidazo[5,1-f][1,2,4]triazin-2-yl)benzenesulfonyl chloride [Compound 24] | 9.40 | 
CCCc1nn(C)c2c(=O)[nH]c(-c3cc(S(=O)(=O)N4CCC(C(O)C(CO[N+](=O)[O-])CO[N+](=O)[O-])CC4)ccc3OCC)nc12 (racemic) [Compound 1i, 2-((1-((4-ethoxy-3-(1-methyl-7-oxo-3-propyl-6,7-dihydro-1H-pyrazolo[4,3-d]pyrimidin-5-yl)phenyl)sulfonyl)piperidin-4-yl)(hydroxy)methyl)propane-1,3-diyl dinitrate] | 8.38 | % Bound in human plasma [2]: 99.85%; fraction unbound [2, 3]: 0.0015
CCCc1nc(C)c2c(=O)[nH]c(-c3cc(S(=O)(=O)N4CCC(C(O)CCO)CC4)ccc3OCC)nn12 (racemic) [Compound 27, 2-(5-((4-(1,3-dihydroxypropyl)piperidin-1-yl)sulfonyl)-2-ethoxyphenyl)-5-methyl-7-propylimidazo[5,1-f][1,2,4]triazin-4(3H)-one] | 9.40 | 
CCCc1nn(C)c2c(=O)[nH]c(-c3cc(S(=O)(=O)N4CCC(C(O)CCO[N+](=O)[O-])CC4)ccc3OCC)nc12 (single isomer, unassigned) [Compound 1e, 3-(1-((4-ethoxy-3-(1-methyl-7-oxo-3-propyl-6,7-dihydro-1H-pyrazolo[4,3-d]pyrimidin-5-yl)phenyl)sulfonyl)piperidin-4-yl)-3-hydroxypropyl nitrate] | 8.34 | 
CCCc1nn(C)c2c(=O)[nH]c(-c3cc(S(=O)(=O)N4CCC(C(O)CCO[N+](=O)[O-])CC4)ccc3OCC)nc12 (single isomer, unassigned) [Compound 1f, 3-(1-((4-ethoxy-3-(1-methyl-7-oxo-3-propyl-6,7-dihydro-1H-pyrazolo[4,3-d]pyrimidin-5-yl)phenyl)sulfonyl)piperidin-4-yl)-3-hydroxypropyl nitrate] | 8.42 | 
CCCc1nn(C)c2c(=O)[nH]c(-c3cc(S(=O)(=O)N4CCC(C(CO)O[N+](=O)[O-])CC4)ccc3OCC)nc12 (single isomer, unassigned) [Compound 1k, 1-(1-((4-ethoxy-3-(1-methyl-7-oxo-3-propyl-6,7-dihydro-1H-pyrazolo[4,3-d]pyrimidin-5-yl)phenyl)sulfonyl)piperidin-4-yl)-2-hydroxyethyl nitrate] | 9.26 | 
CCCc1nn(C)c2c(=O)[nH]c(-c3cc(S(=O)(=O)N4CCC(C(CO)O[N+](=O)[O-])CC4)ccc3OCC)nc12 (single isomer, unassigned) [Compound 1l, 1-(1-((4-ethoxy-3-(1-methyl-7-oxo-3-propyl-6,7-dihydro-1H-pyrazolo[4,3-d]pyrimidin-5-yl)phenyl)sulfonyl)piperidin-4-yl)-2-hydroxyethyl nitrate] | 9.16 | 
CCCc1nc(C)c2c(=O)[nH]c(-c3cc(S(=O)(=O)N4CCC(C(O)CCO[N+](=O)[O-])CC4)ccc3OCC)nn12 (single isomer, unassigned) [Compound 2e, 3-(1-((4-ethoxy-3-(5-methyl-4-oxo-7-propyl-3,4-dihydroimidazo[5,1-f][1,2,4]triazin-2-yl)phenyl)sulfonyl)piperidin-4-yl)-3-hydroxypropyl nitrate] | 9.70 | 
CCCc1nc(C)c2c(=O)[nH]c(-c3cc(S(=O)(=O)N4CCC(C(O)CCO[N+](=O)[O-])CC4)ccc3OCC)nn12 (single isomer, unassigned) [Compound 2f, 3-(1-((4-ethoxy-3-(5-methyl-4-oxo-7-propyl-3,4-dihydroimidazo[5,1-f][1,2,4]triazin-2-yl)phenyl)sulfonyl)piperidin-4-yl)-3-hydroxypropyl nitrate] | 9.52 | 
CCCc1nc(C)c2c(=O)[nH]c(-c3cc(S(=O)(=O)N4CCC(C(CO)O[N+](=O)[O-])CC4)ccc3OCC)nn12 (single isomer, unassigned) [Compound 2k, 1-(1-((4-ethoxy-3-(5-methyl-4-oxo-7-propyl-3,4-dihydroimidazo[5,1-f][1,2,4]triazin-2-yl)phenyl)sulfonyl)piperidin-4-yl)-2-hydroxyethyl nitrate] | 9.59 | 
CCCc1nc(C)c2c(=O)[nH]c(-c3cc(S(=O)(=O)N4CCC(C(CO)O[N+](=O)[O-])CC4)ccc3OCC)nn12 (single isomer, unassigned) [Compound 2l, 1-(1-((4-ethoxy-3-(5-methyl-4-oxo-7-propyl-3,4-dihydroimidazo[5,1-f][1,2,4]triazin-2-yl)phenyl)sulfonyl)piperidin-4-yl)-2-hydroxyethyl nitrate] | 9.77 | 
CCCc1nn(C)c2c(=O)[nH]c(-c3cc(S(=O)(=O)N4CCC(C(O)CCO)CC4)ccc3OCC)nc12 (single isomer, unassigned) [Compound 14-1, 5-(5-((4-(1,3-dihydroxypropyl)piperidin-1-yl)sulfonyl)-2-ethoxyphenyl)-1-methyl-3-propyl-1,6-dihydro-7H-pyrazolo[4,3-d]pyrimidin-7-one] | 8.36 | 
CCCc1nn(C)c2c(=O)[nH]c(-c3cc(S(=O)(=O)N4CCC(C(O)CCO)CC4)ccc3OCC)nc12 (single isomer, unassigned) [Compound 14-2, 5-(5-((4-(1,3-dihydroxypropyl)piperidin-1-yl)sulfonyl)-2-ethoxyphenyl)-1-methyl-3-propyl-1,6-dihydro-7H-pyrazolo[4,3-d]pyrimidin-7-one] | 8.41 | 
CCCc1nn(C)c2c(=O)[nH]c(-c3cc(S(=O)(=O)N4CCC([C@@H](CO[N+](=O)[O-])O[N+](=O)[O-])CC4)ccc3OCC)nc12 [Compound 1b, (S)-1-(1-((4-ethoxy-3-(1-methyl-7-oxo-3-propyl-6,7-dihydro-1H-pyrazolo[4,3-d]pyrimidin-5-yl)phenyl)sulfonyl)piperidin-4-yl)ethane-1,2-diyl dinitrate] | 8.31 | 
CCCc1nn(C)c2c(=O)[nH]c(-c3cc(S(=O)(=O)N4CCC([C@H](O)CO[N+](=O)[O-])CC4)ccc3OCC)nc12 [Compound 1d, (S)-2-(1-((4-ethoxy-3-(1-methyl-7-oxo-3-propyl-6,7-dihydro-1H-pyrazolo[4,3-d]pyrimidin-5-yl)phenyl)sulfonyl)piperidin-4-yl)-2-hydroxyethyl nitrate] | 8.92 | 
CCCc1nn(C)c2c(=O)[nH]c(-c3cc(S(=O)(=O)N4CCC(C(O)(CCO)CCO[N+](=O)[O-])CC4)ccc3OCC)nc12 (centres unmarked) [Compound 1g, 3-(1-((4-ethoxy-3-(1-methyl-7-oxo-3-propyl-6,7-dihydro-1H-pyrazolo[4,3-d]pyrimidin-5-yl)phenyl)sulfonyl)piperidin-4-yl)-3,5-dihydroxypentyl nitrate] | 8.32 | 
CCCc1nn(C)c2c(=O)[nH]c(-c3cc(S(=O)(=O)N4CCC(C(O)(CCO[N+](=O)[O-])CCO[N+](=O)[O-])CC4)ccc3OCC)nc12 [Compound 1h, 3-(1-((4-ethoxy-3-(1-methyl-7-oxo-3-propyl-6,7-dihydro-1H-pyrazolo[4,3-d]pyrimidin-5-yl)phenyl)sulfonyl)piperidin-4-yl)-3-hydroxypentane-1,5-diyl dinitrate] | 8.33 | 
CCCc1nc(C)c2c(=O)[nH]c(-c3cc(S(=O)(=O)N4CCC([C@@H](CO[N+](=O)[O-])O[N+](=O)[O-])CC4)ccc3OCC)nn12 [Compound 2b, (S)-1-(1-((4-ethoxy-3-(5-methyl-4-oxo-7-propyl-3,4-dihydroimidazo[5,1-f][1,2,4]triazin-2-yl)phenyl)sulfonyl)piperidin-4-yl)ethane-1,2-diyl dinitrate] | 9.55 | 
CCCc1nc(C)c2c(=O)[nH]c(-c3cc(S(=O)(=O)N4CCC([C@H](O)CO[N+](=O)[O-])CC4)ccc3OCC)nn12 [Compound 2d, (S)-2-(1-((4-ethoxy-3-(5-methyl-4-oxo-7-propyl-3,4-dihydroimidazo[5,1-f][1,2,4]triazin-2-yl)phenyl)sulfonyl)piperidin-4-yl)-2-hydroxyethyl nitrate] | 9.80 | fraction unbound [2, 4]: 0.0173; fraction unbound [2, 3]: 0.0173
CCCc1nn(C)c2c(=O)[nH]c(-c3cc(S(=O)(=O)N4CCC([C@H](O)CO)CC4)ccc3OCC)nc12 [Compound 6, (S)-5-(5-((4-(1,2-dihydroxyethyl)piperidin-1-yl)sulfonyl)-2-ethoxyphenyl)-1-methyl-3-propyl-1,6-dihydro-7H-pyrazolo[4,3-d]pyrimidin-7-one] | 8.80 | 
CCCc1nn(C)c2c(=O)[nH]c(-c3cc(S(=O)(=O)N4CCC(C(O)(CCO)CCO)CC4)ccc3OCC)nc12 [Compound 15, 5-(2-ethoxy-5-((4-(1,3,5-trihydroxypentan-3-yl)piperidin-1-yl)sulfonyl)phenyl)-1-methyl-3-propyl-1,6-dihydro-7H-pyrazolo[4,3-d]pyrimidin-7-one] | 8.70 | 
CCCc1nc(C)c2c(=O)[nH]c(-c3cc(S(=O)(=O)N4CCC([C@H](O)CO)CC4)ccc3OCC)nn12 [Compound 26, (S)-2-(5-((4-(1,2-dihydroxyethyl)piperidin-1-yl)sulfonyl)-2-ethoxyphenyl)-5-methyl-7-propyl imidazo[5,1-f][1,2,4]triazin-4(3H)-one] | 10.15 | 
CCCc1nc(C)c2c(=O)[nH]c(-c3cc(S(=O)(=O)N4CCC(C(O)C(CO)CO)CC4)ccc3OCC)nn12 (centres unmarked) [Compound 29, 2-(5-((4-(1,3-dihydroxy-2-(hydroxymethyl)propyl)piperidin-1-yl)sulfonyl)-2-ethoxyphenyl)-5-methyl-7-propylimidazo[5,1-f][1,2,4]triazin-4(3H)-one] | 9.43 | 
CCCc1nn(C)c2c(=O)[nH]c(-c3cc(S(=O)(=O)N4CCN(C)CC4)ccc3OCC)nc12 [Sildenafil, 5-(2-ethoxy-5-((4-methylpiperazin-1-yl)sulfonyl)phenyl)-1-methyl-3-propyl-1,6-dihydro-7H-pyrazolo[4,3-d]pyrimidin-7-one, reference compound] |  | fraction unbound [2, 4]: 0.0421; fraction unbound [2, 3]: 0.0419
